SMILES strings stand for the structures. Values after ≈ are worked out from the molar mass of the structure shown. Where two headings read alike, the source gives them in different places. A value given as a limit tells only on which side of the number the result lay.

Common to all, as to assay: Antibacterial activity (MIC), standard method of Japan Society of Chemotherapy
Assay type in all cases: cell-based

The subject of test [1] is Ps. aeruginosa, 32104. Conditions: Pseudomonas aeruginosa, strain Ps. aeruginosa, read-out: minimum inhibitory concentration (MIC). How it is done:
(§1) Examples of the present invention are given below by way of illustration and not by way of limitation. In this connection, antibacterial activity of each compound of interest was measured in accordance with the standard method designated by Japan Society of Chemotherapy. The results are shown in Tables 1 to 3 as minimum inhibitory concentration (MIC, µg/ml).

Test [2] concerns S. flexneli, 2A 5503. As to conditions: strain S. flexneli, read-out: minimum inhibitory concentration (MIC). As for the experimental part:
as §1

Test [3] has as its system Str. pyogenes, G-36. Conditions: Streptococcus pyogenes. How it is done:
as §1

Test [4] has as its system Str. faecalis, ATCC-19433. Conditions: Enterococcus faecalis, ATCC19433, strain Str. faecalis, read-out: minimum inhibitory concentration (MIC). As for the experimental part: as §1
In test [5] the test system is Ps. aeruginosa, 32121. Conditions: Pseudomonas aeruginosa, strain Ps. aeruginosa, read-out: minimum inhibitory concentration (MIC). How it is done:
as §1

The test system of test [6] is Pr. mirabilis, IFO-3849. As to conditions: Proteus mirabilis, IFO3849, strain Pr. mirabilis, read-out: minimum inhibitory concentration (MIC). How it is done:
as §1

Test [7] deals with S. aureus, 209P. As to conditions: Staphylococcus aureus, strain S. aureus, read-out: minimum inhibitory concentration (MIC). How it is done: as §1
Test [8] deals with Ser. marcescens, 10100. Conditions: Serratia marcescens, strain Ser. marcescens, read-out: minimum inhibitory concentration (MIC). How it is done:
as §1

Test [9] has as its system Ps. maltophilia, IID-1275. As to conditions: Stenotrophomonas maltophilia, IID1275, strain Ps. maltophilia, read-out: minimum inhibitory concentration (MIC). As for the experimental part: as §1
In test [10] the test system is E. coli, NIHJ. Conditions: Escherichia coli, read-out: minimum inhibitory concentration (MIC). As for the experimental part:
as §1

Test [11] relates to S. aureus, 870307. Conditions: Staphylococcus aureus, strain S. aureus, read-out: minimum inhibitory concentration (MIC). How it is done:
as §1

Test [12] relates to Pr. vulgaris, 08601. How it is done: as §1
The test system of test [13] is S. epidermidis, 56500. As for the experimental part: as §1
The mark [14] stands for this setting: G36, strain Str. pyogenes, G-36, read-out: minimum inhibitory concentration (MIC).
The mark [15] stands for this setting: Proteus vulgaris, strain Pr. vulgaris, 08601, read-out: minimum inhibitory concentration (MIC).
[16] abbreviates: Staphylococcus epidermidis, 56500, read-out: minimum inhibitory concentration (MIC).
The mark [17] stands for this setting: Staphylococcus epidermidis, strain S. epidermidis, 56500, read-out: minimum inhibitory concentration (MIC).

In the case of `Cc1c(N2C[C@H](F)[C@@H](C3(N)CC3)C2)c(F)c(N)c2c(=O)c(C(=O)O)cn([C@@H]3C[C@@H]3F)c12` [compound 5], the MIC in test [1] was 0.1 µg/mL (≈ 0.229 µM); in test [2], at most 0.003 µg/mL; in test [3] (setting [14]), at most 0.003 µg/mL; in [4], 0.013 µg/mL (≈ 0.0298 µM); in test [5], 0.05 µg/mL (≈ 0.115 µM); in [6] it was 0.025 µg/mL (≈ 0.0573 µM). Also, the MIC in [7] is at most 3 ng/mL; in [8], 0.05 µg/mL (≈ 0.115 µM); in [9], 0.05 µg/mL (≈ 0.115 µM); in test [10] (strain E. coli, NIHJ) it was at most 0.003 µg/mL; in test [11] it was 0.006 µg/mL (≈ 0.0137 µM); in test [12] (setting [15]), 0.013 µg/mL (≈ 0.0298 µM).

As to `C[C@H]1COc2c(N3C[C@H](F)[C@@H](C4(N)CC4)C3)c(F)cc3c(=O)c(C(=O)O)cn1c23` [compound 6], the MIC stood at 0.78 µg/mL (≈ 1.92 µM) in test [1]; 0.025 µg/mL (≈ 0.0617 µM) in [2]; 0.025 µg/mL (≈ 0.0617 µM) in [3] (G36, read-out: minimum inhibitory concentration (MIC)); 0.1 µg/mL (≈ 0.247 µM) in test [4]; 0.025 µg/mL (≈ 0.0617 µM) in test [13] (setting [16]); 0.2 µg/mL (≈ 0.493 µM) in [5]. The MIC in test [6] was 0.2 µg/mL (≈ 0.493 µM); in test [7] it was 6 ng/mL (≈ 0.0148 µM); in [8], 0.1 µg/mL (≈ 0.247 µM); in [9], 0.39 µg/mL (≈ 0.962 µM); in test [10] (strain E. coli, NIHJ) it was 0.013 µg/mL (≈ 0.0321 µM); in [11], 0.39 µg/mL (≈ 0.962 µM). In addition, in test [12] (setting [15]), the MIC turned out to be 0.05 µg/mL (≈ 0.123 µM).

For the compound `Cc1c(N2C[C@H](C3(N)CC3)C(F)(F)C2)c(F)c(N)c2c(=O)c(C(=O)O)cn([C@@H]3C[C@@H]3F)c12` [compound 7], the MIC in test [1] is 0.1 µg/mL (≈ 0.22 µM); in test [2], at most 0.003 µg/mL; in test [3] (setting [14]) it was at most 0.003 µg/mL; in test [4], 0.013 µg/mL (≈ 0.0286 µM); in test [13] (setting [17]), at most 0.003 µg/mL; in [5] it was 0.05 µg/mL (≈ 0.11 µM). The MIC was 0.025 µg/mL (≈ 0.055 µM) in test [6]; at most 3 ng/mL in test [7]; 0.05 µg/mL (≈ 0.11 µM) in test [8]; 0.05 µg/mL (≈ 0.11 µM) in test [9]; at most 0.003 µg/mL in test [10] (strain E. coli, NIHJ); 0.013 µg/mL (≈ 0.0286 µM) in test [11]. Moreover, the MIC in test [12] (setting [15]) worked out at 0.05 µg/mL (≈ 0.11 µM).

On to `CO[C@H]1CN(c2c(F)c(N)c3c(=O)c(C(=O)O)cn([C@@H]4C[C@@H]4F)c3c2C)C[C@@H]1C1(N)CC1` [compound 4], for which the MIC in [1] amounted to 0.78 µg/mL (≈ 1.74 µM); in [2] it was 0.013 µg/mL (≈ 0.029 µM); in [3] (setting [14]), 0.025 µg/mL (≈ 0.0557 µM); in test [4], 0.1 µg/mL (≈ 0.223 µM); in [13] (setting [16]), 0.013 µg/mL (≈ 0.029 µM); in [5] it was 0.39 µg/mL (≈ 0.87 µM). The MIC in test [6] is 0.2 µg/mL (≈ 0.446 µM); in [7], at most 3 ng/mL; in test [8] it was 0.2 µg/mL (≈ 0.446 µM); in test [9], 0.2 µg/mL (≈ 0.446 µM); in test [10], 0.013 µg/mL (≈ 0.029 µM); in test [11], 0.1 µg/mL (≈ 0.223 µM). Also, the MIC in test [12] (setting [15]) amounted to 0.1 µg/mL (≈ 0.223 µM).

As to `COc1c(N2C[C@@H](F)[C@@H](C3(N)CC3)C2)c(F)cc2c(=O)c(C(=O)O)cn([C@@H]3C[C@@H]3F)c12` [compound 12], the MIC in test [1] stood at 0.39 µg/mL (≈ 0.892 µM); in test [2], 0.013 µg/mL (≈ 0.0297 µM); in test [3] (setting [14]), 0.006 µg/mL (≈ 0.0137 µM); in test [4] it was 0.025 µg/mL (≈ 0.0572 µM); in test [13] (setting [16]), 0.013 µg/mL (≈ 0.0297 µM); in test [5], 0.1 µg/mL (≈ 0.229 µM). Moreover, the MIC in test [6] is 0.05 µg/mL (≈ 0.114 µM); in test [7], at most 3 ng/mL; in [8], 0.1 µg/mL (≈ 0.229 µM); in test [9] it was 0.2 µg/mL (≈ 0.457 µM); in [10] (strain E. coli, NIHJ), at most 0.003 µg/mL; in test [11], 0.025 µg/mL (≈ 0.0572 µM). The MIC in test [12] (Proteus vulgaris, 08601, read-out: minimum inhibitory concentration (MIC)) stood at 0.013 µg/mL (≈ 0.0297 µM).

Take `C[C@H]1COc2c(N3C[C@H](C4(N)CC4)C(F)(F)C3)c(F)cc3c(=O)c(C(=O)O)cn1c23` [compound 8]: the MIC in test [1] amounted to 1.56 µg/mL (≈ 3.68 µM); in [2] it was 0.05 µg/mL (≈ 0.118 µM); in test [3] (setting [14]) it was 0.1 µg/mL (≈ 0.236 µM); in test [4], 0.2 µg/mL (≈ 0.472 µM); in test [13] (setting [17]), 0.05 µg/mL (≈ 0.118 µM); in [5] it was 0.39 µg/mL (≈ 0.921 µM). Moreover, the MIC amounted to 0.78 µg/mL (≈ 1.84 µM) in test [6]; 25 ng/mL (≈ 0.059 µM) in [7]; 0.39 µg/mL (≈ 0.921 µM) in [8]; 0.39 µg/mL (≈ 0.921 µM) in [9]; 0.025 µg/mL (≈ 0.059 µM) in [10] (strain E. coli, NIHJ); 0.78 µg/mL (≈ 1.84 µM) in [11]. Besides, the MIC in [12] (setting [15]) worked out at 0.1 µg/mL (≈ 0.236 µM).

Values taken from patent publication EP0911328B1, “SUBSTITUTED AMINOCYCLOALKYLPYRROLIDINE DERIVATIVES” (DAIICHI PHARMACEUTICAL CO., LTD., priority 1995, dated 1997).
